Paper PMC3462775 (PLoS ONE, 2012)
Converted amounts (≈) assume the structure as drawn. Bridge positions count the residues as written; N and C are the ends. Square brackets hold non-standard residues; d marks the D form. Peptide text beside a SMILES is read from it. I, II: the chains in the order shown. βAla = NCCC(=O)O

Assays:
E.coli ATCC 25922 = assay: MIC, standard microdilution assay; assay type: cell-based, Escherichia coli; settings: Reference strain, wild type; CLSI microdilution, cation-supplemented Mueller-Hinton broth, 5x10^4 CFU/well, 18–20 h at 37°C, triplicate
Method: (§1) MICs were determined using a standard microdilution assay as recommended by the Clinical and Laboratory Standards Institute. Assays were performed in triplicate using cation-supplemented Mueller-Hinton (MH) broth (Becton Dickinson, Franklin Lakes, NJ, USA) and a bacterial inoculum of 5x10^4 CFU/well, in a final volume of 100 µl. The tested concentrations ranged from 0.1 µM to 24 µM for both peptides. Results were recorded after 18–20 h of incubation at 37°C.

E.coli W03BG0025 = assay type: cell-based, Escherichia coli
Method: as §1

S.epidermidis ATCC 14990 = assay: MIC, standard microdilution assay; assay type: cell-based, Staphylococcus epidermidis; settings: Reference strain, wild type; CLSI microdilution, cation-supplemented Mueller-Hinton broth, 5x10^4 CFU/well, 18–20 h at 37°C, triplicate
Method: as §1

[1] = tested on: S. aureus ATCC 25923 biofilm; assay type: cell-based, Staphylococcus aureus; settings: for Minimum biofilm eradication concentration (MBEC): ATCC 25923, 20 h
Method: Biofilm formation was performed by adapting the procedure described in [39] using the Calgary Biofilm Device (Innovotech, Innovotech Inc. Edmonton, Canada). Briefly, 96-well plates containing the bacterial inoculum were sealed with lids bearing 96 pegs on which the biofilm could build up. The plates were placed in an orbital incubator at 35°C (for P. aeruginosa and E. coli) or 37°C (for S. aureus) for 20 h under agitation at 125 rpm. Once biofilms formed, the lids were removed from the plates and the pegs were rinsed twice with phosphate buffered saline (PBS) to remove planktonic cells. The peg-lid was then transferred to a 96-well challenge microtiter plate, each well containing 200 µl of a twofold serial dilution of each peptide in LB medium. The challenge plate was incubated at 37°C for 2 hours. Peptide activity on pre-formed biofilm was evaluated by two independent methods: (i) visual observation of bacterial growth and (ii) counting of living bacterial cells after peptide treatment. In the first case, the peg-lid was removed from the challenge plate, rinsed with PBS and used to cover a 96-well recovery microtiter plate, each well containing 200 µl LB medium. The recovery plate was sealed, incubated at 37°C for 4 hours and then observed for any visible growth of bacteria detached from the peptide-treated biofilm. Growth of bacteria in a particular well indicated regrowth of planktonic cells from surviving biofilm. Minimum biofilm eradication concentration (MBEC) was defined as the minimum peptide concentration preventing regrowth of bacteria from the treated biofilm within 4 hours.

[2] = Calcein release from liposomes mimicking the membrane of S. aureus; settings: CL/PG 4∶6 liposomes, 50 µM lipid, 10 min at 20°C, peptide 0,5 to 15 µM, fluorescence 490/517 nm, three independent experiments
From the text: (§2) To investigate interaction of peptides M33-D and M33-L with the bacterial membrane, including possible perturbation, we used vesicles with two lipid compositions to mimic the membrane of S. aureus (CL/PG, 4∶6 mol/mol) and E. coli (PE/PG, 7∶3 mol/mol). […] The peptide-induced effect was dose-dependent in both vesicle lipid compositions. […] No significant differences in the effects induced by M33-D and M33-L were evident, although the D peptide seemed slightly more efficient towards CL/PG liposomes at doses above 8 µM. […] The greater perturbing effect of both forms of M33 on PE/PG vesicles, compared to vesicles containing cardiolipin, was evident.
(§3) Calcein-loaded liposomes of two different composition (PE/PG, 7∶3 mol/mol and CL/PG, 4∶6 mol/mol) were prepared as follows. […] Lipid concentration of vesicles was measured by the method of Stewart and the final concentration used for all measurements was 50 µM. Calcein fluorescence in the vesicles is self-quenched and leakage was measured by relief of quenching; the measurements were carried out at 517 nm, exciting at 490 nm, with a Perkin-Elmer LS 50B spectrofluorimeter. […] Leakage was calculated by the equation: [drawing 1] where F and Ft are fluorescence […] addition of detergent and F0 the fluorescence of intact vesicles.

[3] = Calcein release from liposomes mimicking the membrane of E. coli; settings: PE/PG 7∶3 liposomes, 50 µM lipid, 10 min at 20°C, peptide 0,5 to 15 µM, fluorescence 490/517 nm, three independent experiments
From the text: as §2, §3

[4] = Binding of LPS and LTA to immobilized peptides, surface plasmon resonance; settings: SPR, biotinylated peptides immobilized on SA flow cells; LPS/LTA 10 µg/ml in HBS-EP+ pH 7.4, injected 180 sec at 30 µl/min
Method: Biotinylated peptides were immobilized on SA coated flow cells. M33-L and M33-D peptides, diluted to 10 µg/ml in HBS-EP+ buffer (10 mM Hepes, 150 mM NaCl, 3.4 mM EDTA, 0.05% polysorbate 20 pH 7.4), were injected for 90 sec at a flow rate of 10 µl/min, obtaining 550 RU and 580 RU for M33-L and M33-D respectively.
LTA and LPS molecules from different species (LPS from E. coli, K. pneumonia, P. aeruginosa and LTA from S. aureus and S. faecalis, were obtained from Sigma-Aldrich: L-3012, L-4268, L9143, L2515 and L4015, respectively) were diluted in HBS-EP+ buffer at the concentration of 10 µg/ml and injected for 180 sec with a flow rate of 30 µl/min over immobilized peptides. An empty flow cell was used as reference.

Enterobacteriaceae = assay: MIC comparison M33-D vs M33-L, Enterobacteriaceae; assay type: cell-based
Method: as §1

SMILES | MIC (E.coli ATCC 25922) [µM] | MIC (E.coli W03BG0025) [µM] | MIC (S.epidermidis ATCC 14990) [µM] | Minimum biofilm eradication concentration (MBEC) [1] [µM] | activity in biofilm eradication experiments with respect to M33-D ([1]; S. aureus biofilm eradication, relative to M33-D) [%] | peptide concentration giving maximum calcein release [2] | peptide concentration giving total calcein leakage [3] [µM] | binding and kinetic rates of LPS and LTA, M33-L compared with M33-D (in words) [4] | fold lower activity (MIC) than M33-L (Enterobacteriaceae)
CC[C@H](C)[C@H](NC(=O)[C@H](CCCCN)NC(=O)[C@@H](N)CCCCN)C(=O)N[C@@H](CCCNC(=N)N)C(=O)N[C@H](C(=O)N[C@@H](CCCNC(=N)N)C(=O)N[C@@H](CC(C)C)C(=O)N[C@@H](CO)C(=O)N[C@@H](C)C(=O)NCCCC[C@H](NC(=O)[C@H](C)NC(=O)[C@H](CO)NC(=O)[C@H](CC(C)C)NC(=O)[C@H](CCCNC(=N)N)NC(=O)[C@@H](NC(=O)[C@H](CCCNC(=N)N)NC(=O)[C@@H](NC(=O)[C@H](CCCCN)NC(=O)[C@@H](N)CCCCN)[C@@H](C)CC)C(C)C)C(=O)NCCCC[C@H](NC(=O)[C@H](CCCCNC(=O)[C@H](C)NC(=O)[C@H](CO)NC(=O)[C@H](CC(C)C)NC(=O)[C@H](CCCNC(=N)N)NC(=O)[C@@H](NC(=O)[C@H](CCCNC(=N)N)NC(=O)[C@@H](NC(=O)[C@H](CCCCN)NC(=O)[C@@H](N)CCCCN)[C@@H](C)CC)C(C)C)NC(=O)[C@H](C)NC(=O)[C@H](CO)NC(=O)[C@H](CC(C)C)NC(=O)[C@H](CCCNC(=N)N)NC(=O)[C@@H](NC(=O)[C@H](CCCNC(=N)N)NC(=O)[C@@H](NC(=O)[C@H](CCCCN)NC(=O)[C@@H](N)CCCCN)[C@@H](C)CC)C(C)C)C(=O)NCCC(=O)O)C(C)C [M33-L] (I: H-KKIRVRLSAKK[βAla]-OH / II: H-KKIRVRLSAK / III: H-KKIRVRLSA / IV: H-KKIRVRLSA; amide I:10-IV:C, I:11-II:C, II:10-III:C; N-terminus assumed) | 3 (≈ 14 µg/mL) | 0.7 (≈ 3.28 µg/mL) | 1.5 (≈ 7.02 µg/mL) | 12 | 12 | greater than 10 µM | 5 | No significant difference in binding or kinetic rates | –
CC[C@@H](C)[C@@H](NC(=O)[C@@H](CCCCN)NC(=O)[C@H](N)CCCCN)C(=O)N[C@H](CCCNC(=N)N)C(=O)N[C@@H](C(=O)N[C@H](CCCNC(=N)N)C(=O)N[C@H](CC(C)C)C(=O)N[C@H](CO)C(=O)N[C@H](C)C(=O)NCCCC[C@H](NC(=O)[C@@H](C)NC(=O)[C@@H](CO)NC(=O)[C@@H](CC(C)C)NC(=O)[C@@H](CCCNC(=N)N)NC(=O)[C@H](NC(=O)[C@@H](CCCNC(=N)N)NC(=O)[C@H](NC(=O)[C@@H](CCCCN)NC(=O)[C@H](N)CCCCN)[C@H](C)CC)C(C)C)C(=O)NCCCC[C@H](NC(=O)[C@H](CCCCNC(=O)[C@@H](C)NC(=O)[C@@H](CO)NC(=O)[C@@H](CC(C)C)NC(=O)[C@@H](CCCNC(=N)N)NC(=O)[C@H](NC(=O)[C@@H](CCCNC(=N)N)NC(=O)[C@H](NC(=O)[C@@H](CCCCN)NC(=O)[C@H](N)CCCCN)[C@H](C)CC)C(C)C)NC(=O)[C@@H](C)NC(=O)[C@@H](CO)NC(=O)[C@@H](CC(C)C)NC(=O)[C@@H](CCCNC(=N)N)NC(=O)[C@H](NC(=O)[C@@H](CCCNC(=N)N)NC(=O)[C@H](NC(=O)[C@@H](CCCCN)NC(=O)[C@H](N)CCCCN)[C@H](C)CC)C(C)C)C(=O)NCCC(=O)O)C(C)C [M33-D] (I: H-[dK][dK][dI][dR][dV][dR][dL][dS][dA]KK[βAla]-OH / II: H-[dK][dK][dI][dR][dV][dR][dL][dS][dA]K / III: H-[dK][dK][dI][dR][dV][dR][dL][dS][dA] / IV: H-[dK][dK][dI][dR][dV][dR][dL][dS][dA]; amide I:10-IV:C, I:11-II:C, II:10-III:C; N-terminus assumed) | 3 (≈ 14 µg/mL) | 3 (≈ 14 µg/mL) | 0.4 (≈ 1.87 µg/mL) | 1.5 | – | greater than 10 µM | 5 | No significant difference in binding or kinetic rates | 2–4 fold
